In ChEMBL document CHEMBL4715723, “Discovery and development of benzo-[1,2,4]-triazolo-[1,4]-oxazepine GPR142 agonists for the treatment of diabetes” (Bioorg Med Chem Lett, 2016):
pEC50, pIC50: −log10 of the molar value.

Legend:
[1] = Protein binding in rat plasma assessed as unbound fraction; type: ADME, cell-free
Cytochrome P450 3A4 = Cytochrome P450 3A4 (Homo sapiens, UniProt P08684); experiment: Inhibition of human liver microsomes CYP3A4 using testosterone as substrate by MUX-MS/MS analysis; type: ADME, Microsome
[2] = Half life in rat at 2 mg/kg, po or 1 mg/kg, iv; type: ADME, organism-based; details: in vivo
Cytochrome P450 2C9 = Cytochrome P450 2C9 (Homo sapiens, UniProt P11712); experiment: Inhibition of human liver microsomes CYP2C9 using diclofenac as substrate by MUX-MS/MS analysis; type: ADME, Microsome
Cytochrome P450 2D6 = Cytochrome P450 2D6 (Homo sapiens, UniProt P10635); experiment: Inhibition of human liver microsomes CYP2D6 using dextromethorphan as substrate by MUX-MS/MS analysis; type: ADME, Microsome
[3] = Clearance in rat at 2 mg/kg, po or 1 mg/kg, iv; type: ADME, organism-based; details: in vivo
[4] = biological target: T1, Probable G-protein coupled receptor 142 (Homo sapiens, UniProt Q7Z601); experiment: Agonist activity at human GPR142 expressed in CHO cells measured for 3 mins by Fluo-4M dye based FLIPR assay; type: cell-based; details: read-out: IC50 (the source's name)
T1 sequence (Q7Z601 whole entry): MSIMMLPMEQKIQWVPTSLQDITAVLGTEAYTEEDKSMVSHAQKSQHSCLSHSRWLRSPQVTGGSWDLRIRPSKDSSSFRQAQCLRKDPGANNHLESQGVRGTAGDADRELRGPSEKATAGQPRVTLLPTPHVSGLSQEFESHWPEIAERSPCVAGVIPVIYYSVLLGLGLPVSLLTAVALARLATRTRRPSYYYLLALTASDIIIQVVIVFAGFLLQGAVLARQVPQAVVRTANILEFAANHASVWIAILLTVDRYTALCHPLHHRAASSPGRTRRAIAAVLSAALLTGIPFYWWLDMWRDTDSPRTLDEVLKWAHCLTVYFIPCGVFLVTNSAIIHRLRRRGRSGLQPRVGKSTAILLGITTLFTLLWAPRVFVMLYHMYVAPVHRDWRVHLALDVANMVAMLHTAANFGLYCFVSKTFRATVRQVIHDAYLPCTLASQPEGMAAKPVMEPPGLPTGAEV

Mus musculus = experiment: Antidiabetic activity in […] mouse assessed as reduction in dextrose-induced blood glucose peak administered po before dextrose stimulation and measured upto 120 mins after dextrose administration by OGTT assay; type: functional, organism-based; details: time min <=120
[5] = biological target: Voltage-gated inwardly rectifying potassium channel KCNH2 (Homo sapiens, UniProt Q12809); experiment: Inhibition of human ERG expressed in HEK293 cells assessed as reduction in S35-MK-0499 binding; type: cell-based
[6] = Oral bioavailability in rat at 2 mg/kg; type: ADME, organism-based; details: in vivo
[7] = Volume of distribution at steady state in rat at 2 mg/kg, po or 1 mg/kg, iv; type: ADME, organism-based; details: in vivo, read-out: Vdss
[8] = biological target: T2, Probable G-protein coupled receptor 142 (Mus musculus, UniProt Q7TQN9); experiment: Agonist activity at mouse GPR142 expressed in CHO cells measured for 3 mins by Fluo-4M dye based FLIPR assay; type: cell-based; details: read-out: IC50 (the source's name)
T2 sequence (Q7TQN9 whole entry): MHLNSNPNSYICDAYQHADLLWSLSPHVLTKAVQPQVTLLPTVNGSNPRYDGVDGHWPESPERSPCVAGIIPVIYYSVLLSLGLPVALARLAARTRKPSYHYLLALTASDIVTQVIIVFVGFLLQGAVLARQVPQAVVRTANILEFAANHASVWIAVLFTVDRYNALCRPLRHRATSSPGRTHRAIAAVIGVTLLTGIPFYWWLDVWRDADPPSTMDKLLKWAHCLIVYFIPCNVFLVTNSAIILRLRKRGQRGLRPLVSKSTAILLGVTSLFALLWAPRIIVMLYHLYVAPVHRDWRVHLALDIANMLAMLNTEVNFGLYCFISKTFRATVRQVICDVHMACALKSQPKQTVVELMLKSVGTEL

Cytochrome P450 2C9, sequence (P11712 whole entry): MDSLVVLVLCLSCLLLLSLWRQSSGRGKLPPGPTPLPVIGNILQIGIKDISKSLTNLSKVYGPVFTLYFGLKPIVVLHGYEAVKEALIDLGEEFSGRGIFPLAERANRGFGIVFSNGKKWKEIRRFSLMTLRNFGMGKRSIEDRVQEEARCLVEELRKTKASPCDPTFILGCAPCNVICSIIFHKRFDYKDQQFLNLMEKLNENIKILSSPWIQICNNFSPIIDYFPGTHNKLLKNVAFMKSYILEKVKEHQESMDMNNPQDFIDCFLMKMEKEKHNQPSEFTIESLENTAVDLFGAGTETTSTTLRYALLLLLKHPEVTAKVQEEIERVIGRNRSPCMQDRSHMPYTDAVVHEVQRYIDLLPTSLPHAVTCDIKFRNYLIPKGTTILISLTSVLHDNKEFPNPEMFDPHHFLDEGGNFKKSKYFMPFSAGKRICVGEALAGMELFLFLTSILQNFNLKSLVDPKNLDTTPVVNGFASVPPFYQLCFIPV
Voltage-gated inwardly rectifying potassium channel KCNH2, sequence (Q12809 whole entry): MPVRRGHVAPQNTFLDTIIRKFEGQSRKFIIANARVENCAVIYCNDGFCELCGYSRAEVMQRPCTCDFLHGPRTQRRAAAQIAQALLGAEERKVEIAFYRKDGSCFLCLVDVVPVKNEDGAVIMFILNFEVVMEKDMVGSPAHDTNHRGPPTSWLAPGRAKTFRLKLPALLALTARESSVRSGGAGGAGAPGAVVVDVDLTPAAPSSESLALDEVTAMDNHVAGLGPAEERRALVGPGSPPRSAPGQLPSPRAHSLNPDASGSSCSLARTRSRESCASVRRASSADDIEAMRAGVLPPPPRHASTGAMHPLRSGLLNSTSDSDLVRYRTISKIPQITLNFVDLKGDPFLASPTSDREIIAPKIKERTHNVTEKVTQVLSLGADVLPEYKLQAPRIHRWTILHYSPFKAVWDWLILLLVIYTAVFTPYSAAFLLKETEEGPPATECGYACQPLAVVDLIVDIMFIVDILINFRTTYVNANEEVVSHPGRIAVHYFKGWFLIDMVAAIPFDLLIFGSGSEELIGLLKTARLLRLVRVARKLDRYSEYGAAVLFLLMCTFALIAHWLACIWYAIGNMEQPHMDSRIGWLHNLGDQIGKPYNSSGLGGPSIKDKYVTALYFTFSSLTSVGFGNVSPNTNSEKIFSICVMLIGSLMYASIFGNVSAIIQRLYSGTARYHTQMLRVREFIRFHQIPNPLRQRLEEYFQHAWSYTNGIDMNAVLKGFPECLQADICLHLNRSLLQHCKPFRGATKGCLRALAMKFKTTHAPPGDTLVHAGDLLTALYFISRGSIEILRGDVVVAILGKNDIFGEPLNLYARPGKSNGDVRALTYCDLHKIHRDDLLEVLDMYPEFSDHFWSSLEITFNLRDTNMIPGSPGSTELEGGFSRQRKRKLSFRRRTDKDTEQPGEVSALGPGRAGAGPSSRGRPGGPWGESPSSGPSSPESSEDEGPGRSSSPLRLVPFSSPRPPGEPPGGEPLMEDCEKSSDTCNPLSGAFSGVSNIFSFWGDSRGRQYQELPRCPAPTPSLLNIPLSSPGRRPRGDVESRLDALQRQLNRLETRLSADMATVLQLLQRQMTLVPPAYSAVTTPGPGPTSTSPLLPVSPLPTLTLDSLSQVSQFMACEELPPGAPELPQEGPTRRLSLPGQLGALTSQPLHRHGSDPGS
Cytochrome P450 3A4, sequence (P08684 whole entry): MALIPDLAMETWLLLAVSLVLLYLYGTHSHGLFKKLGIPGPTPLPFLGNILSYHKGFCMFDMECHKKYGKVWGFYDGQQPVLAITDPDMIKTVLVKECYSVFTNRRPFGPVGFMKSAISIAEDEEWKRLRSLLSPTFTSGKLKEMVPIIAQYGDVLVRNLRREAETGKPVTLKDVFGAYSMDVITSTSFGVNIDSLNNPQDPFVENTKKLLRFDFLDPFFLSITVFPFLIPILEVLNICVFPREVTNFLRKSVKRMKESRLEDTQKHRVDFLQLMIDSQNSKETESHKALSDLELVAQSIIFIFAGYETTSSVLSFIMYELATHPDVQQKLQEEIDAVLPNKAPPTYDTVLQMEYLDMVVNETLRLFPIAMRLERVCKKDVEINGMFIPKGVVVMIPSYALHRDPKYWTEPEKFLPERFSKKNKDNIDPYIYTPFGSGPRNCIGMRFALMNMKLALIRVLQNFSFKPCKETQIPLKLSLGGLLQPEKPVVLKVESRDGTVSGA
Cytochrome P450 2D6, sequence (P10635 whole entry): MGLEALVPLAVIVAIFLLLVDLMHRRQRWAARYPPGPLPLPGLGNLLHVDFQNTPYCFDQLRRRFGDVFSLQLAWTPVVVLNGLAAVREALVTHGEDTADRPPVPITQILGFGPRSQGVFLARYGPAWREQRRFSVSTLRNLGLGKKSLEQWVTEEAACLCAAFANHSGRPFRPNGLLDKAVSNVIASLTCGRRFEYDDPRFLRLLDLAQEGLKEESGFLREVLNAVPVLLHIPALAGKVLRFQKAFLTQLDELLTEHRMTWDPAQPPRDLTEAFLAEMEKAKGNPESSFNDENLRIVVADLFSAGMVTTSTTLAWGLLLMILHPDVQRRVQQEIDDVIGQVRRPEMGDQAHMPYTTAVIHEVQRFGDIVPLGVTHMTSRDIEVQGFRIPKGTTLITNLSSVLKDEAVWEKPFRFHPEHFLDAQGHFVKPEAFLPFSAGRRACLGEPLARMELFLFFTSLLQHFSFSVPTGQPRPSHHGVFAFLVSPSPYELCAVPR

SMILES	pIC50 (Cytochrome P450 3A4)	pIC50 (Cytochrome P450 2C9)	pIC50 (Cytochrome P450 2D6)	pEC50 [4]	pIC50 [5]	pEC50 [8]	further results
Cc1cc(-c2ccc3c(c2)-c2nnc(Oc4cccc(Cl)c4F)n2CCO3)ccn1	5.08	5.28	4.92	7.25	5.62		fraction unbound [1]: 0.0111; half-life [2]: 2 h; clearance [3]: 8.9 mL/min/kg; Activity (Mus musculus): Dose-dependent effect; bioavailability [6]: 67%; Vd [7]: 1.6 L/kg
Cc1cc(-c2ccc3c(c2)-c2nnc(Nc4cccc(Cl)c4)n2CCO3)ccn1	4.93	5.46	6.10				fraction unbound [1]: 0.0337; half-life [2]: 2.5 h; clearance [3]: 7.8 mL/min/kg; bioavailability [6]: 40%; Vd [7]: 1.9 L/kg
Cc1cc(-c2ccc3c(c2)-c2nnc(Oc4cccc(Cl)c4)n2CCO3)ccn1	< 4.30	< 4.30	5.15	7.24	6.03		
O=C(Nc1ccccc1F)N1CCOc2ccc(-c3ccncc3)cc2C1				4.88		6.22	
CN1CCN(C(=O)Nc2ccc(Cl)c(Cl)c2)Cc2cc(-c3ccncc3)ccc21				< 4.70		5.59	
COc1cccc(N(C)C(=O)N2CCOc3ccc(-c4ccncc4)cc3C2)c1				< 4.70		< 4.70	
COc1cccc(NC(=O)N2CCOc3ccc(-c4ccncc4OC)cc3C2)c1				6.73		6.31	
CCc1cc(-c2ccc3c(c2)-c2nnc(Nc4cccc(C(F)(F)F)c4)n2CCO3)ccn1	< 4.30	5.45	5.63	7.13	6.48		fraction unbound [1]: 0.0034; half-life [2]: 1.4 h; clearance [3]: 14 mL/min/kg; bioavailability [6]: 97%; Vd [7]: 2.6 L/kg
O=C(Nc1ccc(Cl)c(Cl)c1)N1CCc2ccc(-c3ccncc3)cc21				< 4.70		5.53	
O=C(Cc1cccc(C(F)(F)F)c1)N1CCOc2ccc(-c3ccncc3)cc2C1				5.79		6.21	
COc1cccc(NC(=O)N2CCOc3ccc(-c4ccnc(C)c4)cc3C2)c1				6.43			
O=C(Nc1ccc(Cl)c(Cl)c1)N1CCc2ccc(-c3ccncc3)cc2C1				5.73		5.98	
O=C(Nc1ccc(F)cc1)N1CCOc2ccc(-c3ccncc3)cc2C1				5.91		5.58	
O=C(Nc1ccc(Cl)c(Cl)c1)N1Cc2ccc(-c3ccncc3)cc2C1				< 4.70		< 4.70	
Cc1cc(-c2ccc3c(c2)-c2nnc(Oc4cccc(OC(F)(F)F)c4)n2CCO3)ccn1	< 4.30	4.84	5.71	7.11	6.16		
FC(F)(F)c1cccc(Nc2nnc3n2CCOc2ccc(-c4ccncc4)cc2-3)c1	6.29	6.27	6.11	7.32	6.25		
O=S(=O)(Cc1cccc(C(F)(F)F)c1)N1CCOc2ccc(-c3ccncc3)cc2C1				5.64		6.80	
Cc1cc(-c2ccc3c(c2)-c2nnc(Cc4cccc(Cl)c4)n2CCO3)ccn1	5.97	5.84	6.00	6.23	5.41		
Cc1cc(-c2ccc3c(c2)-c2nnc(Oc4ccccc4Cl)n2CCO3)ccn1	< 4.30	< 4.30	4.61	6.99	5.45		
COc1ccc(NC(=O)N2CCOc3ccc(-c4ccncc4)cc3C2)cc1				< 4.70		< 4.70	
COc1cccc(NC(=O)N2CCOc3ccc(-c4ccncc4C)cc3C2)c1				6.40		5.93	
O=C(Nc1cccc(Oc2ccccc2)c1)N1CCOc2ccc(-c3ccncc3)cc2C1				5.76		6.84	
Cc1cc(-c2ccc3c(c2)-c2nnc(Oc4ccccc4OC(F)(F)F)n2CCO3)ccn1	< 4.30	4.58	5.06	7.05	5.55		
O=C(Nc1cccc(Cl)c1)N1CCOc2ccc(-c3ccncc3)cc2C1				6.97		6.79	fraction unbound [1]: 0.0086; half-life [2]: 0.66 h; clearance [3]: 56.1 mL/min/kg; bioavailability [6]: 1%; Vd [7]: 2 L/kg
